This is an account of results in patent US4898943A, “Tricyclic triazolopyrimidine derivatives” (Daiichi Seiyaku Co., Ltd., priority 1987, dated 1990).

The subject of one data set is PCA reaction. Put plainly: PCA test (48-hour passive cutaneous anaphylaxis), oral administration. It is filed as in vivo. The settings on record: Rattus norvegicus, 10 mg/kg orally, 30 minutes before antigen challenge, male Sprague-Dawley rats. How it is done:
Each of Sprague-Dawley female rats weighing 170 to 250 g (CRJ-CD(SD), Charles River Japan Inc.) was intramuscularly administered with 5 mg/kg-body weight of egg albumin dissolved in saline, and then 1 ml of a suspension of Bordetella pertussis vaccine (2×10^10 organism) in saline was administered intraperitoneally to the rat. On day 10, 3,000 larvae animal of Nippostrongylus brasiliensis were subcutaneously administered to the rats. On day 24, blood was drawn from the rats to obtain an antiserum.
The antiserum was diluted with saline so as to provide a blue spot having a diameter of about 10 mm in the following control group.
Male sprague-Dawley rats weighing about 180 g (5 rats per group) were sensitized by injecting 0.05 ml of the diluted antiserum into the shaved dorsal skin. Fourty-eight hours later, 1 ml of saline containing 0.5% Evans blue and 5 mg of egg albumin was administered to each of the rats via a tail vein. After 30 minutes, the rats were sacrificed by decapitation. The dorsal skin was removed, and the amount of the dye in the blue spot area was measured in accordance with the method of Katayama et al., Microbiol. Immunol., Vol. 22, 89-101 (1978).
Ten milligrams of the test compound was suspended in 5 ml of a 0.5% CMC aqueous solution, and the suspension was orally administered to each of the rats in an amount of 10 mg/kg 30 minutes before the antigen challenge. On the other hand, a control group received only a 0.5% CMC solution.
The inhibitory activity on the PCA reaction in the treated group was calculated by the following equation: [formula] wherein V represents a mean value of the dye amount in the blue spot area in the control group; and W represents a mean value of the dye amount in the blue spot area in the treated group.

The next data set in a line: Acute toxicity test. The settings on record: mouse, in vivo, po; p.o. in mice.

The compound `O=c1c2[nH]nnc2nc2sc(CCC3CCCCCC3)nn12` [Example 9] showed an inhibition at 10 mg/kg in the data set on PCA reaction of 88%. In addition, the LD50 in the data set “Acute toxicity test” is > 4000 mg/kg.
`O=c1c2[nH]nnc2nc2sc(CCC3CCCC3)nn12` [Example 2] had an inhibition at 10 mg/kg in the data set on PCA reaction of 62%. The compound also had an LD50 in the data set “Acute toxicity test” of 2000 to 4000 mg/kg.
`O=c1c2[nH]nnc2nc2sc(CC3CCCCC3)nn12` [Example 4] gave an inhibition at 10 mg/kg in the data set with PCA reaction of 77%.
As to `O=c1c2[nH]nnc2nc2sc(CCCC3CCCCC3)nn12` [Example 5], the LD50 in “Acute toxicity test” is > 4000 mg/kg.
In the case of `O=c1c2[nH]nnc2nc2sc(CCCC3CCCC3)nn12` [Example 3], the inhibition at 10 mg/kg with PCA reaction is 91%. Moreover, the LD50 in “Acute toxicity test” was > 4000 mg/kg.
For `O=c1c2[nH]nnc2nc2sc(CCC3CCCCC3)nn12` [Example 1, 6-(2-Cyclohexylethyl)-[1,3,4]thiadiazolo-[3,2-a][1,2,3]triazolo[4,5-d]pyrimidin-9-(1H)-one], testing at 10 mg/kg with PCA reaction gave an inhibition of 81%. Also, the LD50 in the data set “Acute toxicity test” is > 4000 mg/kg.
